From ChEMBL document CHEMBL1127918, “The role of peptide bond in chemotactic for-met-leu-phe-ome focused by depsipeptide analogs” (1994)
Where a SMILES comes first, the peptide text is derived from it. [ ]: non-standard residue; d: D form. The star is where a group is joined. PhLac = O=C(O)[C@@H](O)Cc1ccccc1; NHBn = c1ccc(CN*)cc1; For = O=C*

How the values were obtained:
Format in all cases: functional
Homo sapiens [1] = organism: Homo sapiens; assay: (§1) Superoxide anion release expressed as n moles of superoxide anion/2E6 neutrophils/5 min
Homo sapiens [2] = organism: Homo sapiens; assay: (§2) Chemotactic activity was expressed as percentage of random locomotion
Homo sapiens [3] = organism: Homo sapiens; assay: lysozyme release expressed as percentage of total enzyme content released by 0.1% Triton X-100
Homo sapiens [4] = organism: Homo sapiens; assay: as §1; remark: listed apart in the source
Homo sapiens [5] = organism: Homo sapiens; assay: Chemotactic activity was expressed as percentage of random locomotion of human neutrophils
Homo sapiens [6] = organism: Homo sapiens; assay: as §2; remark: listed apart in the source
Homo sapiens [7] = organism: Homo sapiens; assay: as §1; remark: listed apart in the source
Homo sapiens [8] = organism: Homo sapiens; assay: as §2; remark: listed apart in the source
Homo sapiens [9] = organism: Homo sapiens; assay: Chemotactic activity was expressed as percentage of random locomotion human neutrophils

Row | SMILES | Superoxide anion release (Homo sapiens [1]) | Chemotactic activity (% of random locomotion) (Homo sapiens [2]) | chemotactic activity (% of random locomotion) at 10^-8 M (Homo sapiens [2]) | Log [-5] (Homo sapiens [3]) | Log [-6] (Homo sapiens [3]) | Log [-7] (Homo sapiens [3]) | Log [-8] (Homo sapiens [3]) | Superoxide anion release (Homo sapiens [4]) | Chemotactic activity at 10^-10 M (% of random locomotion) (Homo sapiens [5]) | Log [-9] (Homo sapiens [5]) | Chemotactic activity (% of random locomotion) (Homo sapiens [6]) | Superoxide anion release (Homo sapiens [7]) | Superoxide anion release at 10^-8 M (Homo sapiens [7]) | Chemotactic activity (% of random locomotion) (Homo sapiens [8]) | Log [-9] (Homo sapiens [9])
1 | COC(=O)[C@H](Cc1ccccc1)NC(=O)[C@H](CC(C)C)NC(=O)[C@H](CCSC)NC=O | 43 | 85 | 105 | 62 | 67 | 59 | 54 | 37 | 105 | 115 | 62 | 44 | 7 | 36 | –
2 | COC(=O)[C@H](Cc1ccccc1)NC(=O)[C@H](CC(C)C)OC(=O)[C@H](CCSC)NC=O | 0 | 13 | 8 | 10 | 12 | 10 | 11 | 0 | 0 | – | 9 | 0 | 0 | 10 | 11
3 | COC(=O)[C@H](Cc1ccccc1)NC(=O)C(C)(N)COC(=O)[C@H](CCSC)NC=O (stereo partly specified) | 0 | 14 | 14 | 15 | 13 | 11 | 15 | 0 | 10 | 9 | 7 | 0 | 0 | 4 | –
4 | CSCC[C@H](NC=O)C(=O)N[C@@H](CC(C)C)C(=O)O[C@@H](Cc1ccccc1)C(=O)NCc1ccccc1 (For-Met-Leu-[PhLac]-NHBn) | 24 | 51 | 51 | 40 | 38 | 35 | 24 | 32 | 62 | 54 | 55 | 14 | 8 | 20 | –
